The values below are quoted from earlier work in patent US6166008A, “Treatment of schizophrenia with ampakines and neuroleptics” (Cortex Pharmaceuticals, Inc., priority 1998, dated 2000).

The structures appear in SMILES notation.

The data set has as its system fast synaptic potentials in hippocampus. The note with it: metabolite of aniracetam; cited from earlier work.

On to `COc1ccc(C(=O)NCCCC(=O)O)cc1` [anisoyl-GABA], for which the aniracetam-like effects entry is on record as “only weak aniracetam-like effects”.
